Measured values taken from patent US20020022215A1 (priority 2000, published 2002).
Like-named read-outs stand apart in the source and are kept apart here.

Assays:
[1] = system: Chinese Hamster Ovary (CHO) cells
HAV = type: cell-based, hepatitis A virus, strain HM175; settings: for reduction of HAV: in plasma
E. coli B [2] = assay: Inactivation of E. coli B on porphyrin-containing cellulose acetate membranes; type: cell-based, Escherichia coli B (ATCC 11303); settings: cellulose acetate membranes containing the porphyrin, UV light, 100 minutes
Experimental: Cultures of E. coli B (ATCC 11303) were grown the day before an experiment to log phase growth in 50 milliliters of tryptic soy broth (TSB) followed by centrifugation at 3000 rpm for 10 minutes and at 4° C. The supernatant was drawn off and discarded and pellets were resuspended in 10 mL of 0.2 M phosphate buffered saline (PBS; pH 7.2). The centrifugation-resuspension process was repeated for a total of three times. Preparations were kept at 4° C. until ready for use. Bacterial cultures were assayed on tryptic soy agar (TSA) by spot or spread plating duplicate 0.04 to 0.1 ml volumes of the serially diluted preparation onto the agar plates, and was enumerated via colony counts after incubation overnight at 44.5° C. Results are expressed as cfu/ml. On the day of an experiment, the stock preparation was serially diluted in PBS to a target concentration of about […] E. coli cells per milliliter for use on membranes and in solution, respectively. Duplicate 0.1 ml volumes of the experimental samples were spread plated on TSA and incubated overnight at 44.5° C.
When cellulose acetate membranes containing protoporphyrin IX (disodium salt) were exposed to UV light, E. coli B was inactivated by 0.3 log10 cfu/ml in 100 minutes and by about 1.0 log10 (90%) in 300 minutes (FIG. 8).

coliphage MS2 = type: cell-based, coliphage MS2 (ATCC 15597-B1); settings: for log10 reduction of MS2 / reduction of MS2: in NaCl, UV light
Klebsiella oxytoca = assay: Inactivation of Klebsiella oxytoca in human plasma; type: cell-based; settings: 10^−5 M with light (FIG. 7)
E. coli B [3] = type: cell-based, Escherichia coli B (ATCC 11303); settings: for log10 reduction of E. coli B / percentage reduction of E. coli B: 10^−3 M in NaCl, 365 nm UV; for log10 reduction of Escherichia coli B / percentage reduction of Escherichia coli B: 365 nm light
poliovirus (PV1) = type: cell-based, Poliovirus-1
Escherichia coli B = assay: Initial studies: inactivation of Escherichia coli B with and without aeration of the medium; type: cell-based
Source text: Light alone, or porphyrin alone, were ineffective.

[4] = 10^−4 M, another experiment (controls 193)
[5] = 10^−5 M, another experiment (controls 193)
[6] = 10^−4 M, six days, first experiment (controls 271)
[7] = 10^−5 M, six days, first experiment (controls 271)

Question: How did the CHO colony count [1, 4] turn out when `CCCC[n+]1ccc(-c2c3nc(c(-c4cc[n+](CCCC)cc4)c4ccc([nH]4)c(-c4cc[n+](CCCC)cc4)c4nc(c(-c5cc[n+](CCCC)cc5)c5ccc2[nH]5)C=C4)C=C3)cc1` [TPyPH2(N-Bu), tetrakis (4-n-butylpyridiniumyl) porphyrin] was run?
Answer: no colony forming units detected

Question: What about the CHO colony count [1, 5] of the same compound?
Answer: 186 cfu/well

Question: And the “reduction of HAV” value (HAV; 1 minute (first of five values))?
Answer: 0.1 log10

Question: What about the “reduction of HAV” value (HAV; 10 minutes (second of five values)) of the same compound?
Answer: 1.5 log10

Question: What about the “reduction of HAV” value (HAV; 30 minutes (third of five values)) of the same compound?
Answer: 1.6 log10

Question: And the “reduction of HAV” value (HAV; 90 minutes (last of five values))?
Answer: > 3.3 log10

Question: What about the “reduction of HAV” value (HAV; fourth of five values, its time is not given) of the same compound?
Answer: 2.7 log10

Question: For `C=CC1=C(C)c2cc3[nH]c(cc4nc(cc5[nH]c(cc1n2)c(C)c5CCC(=O)O)C(CCC(=O)O)=C4C)c(C)c3C=C` [protoporphyrin IX], which “inactivation of E. coli B” value (E. coli B [2]) is on record?
Answer: 0.3 log10 cfu/ml

Question: How did the CHO colony count [1, 4] turn out when `C[n+]1ccc(-c2c3nc(c(-c4cc[n+](C)cc4)c4ccc([nH]4)c(-c4cc[n+](C)cc4)c4nc(c(-c5cc[n+](C)cc5)c5ccc2[nH]5)C=C4)C=C3)cc1.Cc1ccc(S(=O)(=O)[O-])cc1.Cc1ccc(S(=O)(=O)[O-])cc1.Cc1ccc(S(=O)(=O)[O-])cc1.Cc1ccc(S(=O)(=O)[O-])cc1` [TMPyP4, tetrakis (N-methyl-4-pyridiniumyl) porphine tetratosylate] was run?
Answer: no colony forming units detected

Question: What about the CHO colony count [1, 6] of the same compound?
Answer: no cells could be detected

Question: And the CHO colony count [1, 5]?
Answer: 183 cfu/well

Question: What about the CHO colony count [1, 7] of the same compound?
Answer: 322 cfu/well

Question: What about the “inactivation of HAV in water” value (HAV; 10^−5M in water, light, 30 min (FIG. 5)) of the same compound?
Answer: greater than 3 logs

Question: And the “MS2 incubated in the dark, infectivity assay” value (coliphage MS2; 10^−3 M in PBS, dark)?
Answer: not detected

Question: What about the “log10 reduction of MS2” value (coliphage MS2; 1 minute) of the same compound?
Answer: 0.3 log10

Question: And the “reduction of MS2” value (coliphage MS2; 1 minute)?
Answer: 50%

Question: And the “log10 reduction of MS2” value (coliphage MS2; 10 minutes)?
Answer: 0.9 log10

Question: And the “reduction of MS2” value (coliphage MS2; 10 minutes)?
Answer: 87%

Question: What about the “log10 reduction of MS2” value (coliphage MS2; 60 minutes) of the same compound?
Answer: > 3.8 log10

Question: What about the “reduction of MS2” value (coliphage MS2; 60 minutes) of the same compound?
Answer: > 99.98%

Question: What about the “MS2 in the absence of light” value (coliphage MS2; no light (FIG. 3)) of the same compound?
Answer: unaffected

Question: And the “MS2 in porphyrin/plasma mixture not exposed to LWUV” value (coliphage MS2; plasma, no LWUV)?
Answer: not detectable

Question: And the “inactivation of Klebsiella oxytoca” value (Klebsiella oxytoca)?
Answer: over 5 log10

Question: And the “log10 reduction of E. coli B” value (E. coli B [3]; 1 minute)?
Answer: 1.7 log10

Question: And the “percentage reduction of E. coli B” value (E. coli B [3]; 1 minute)?
Answer: 98%

Question: What about the “log10 reduction of E. coli B” value (E. coli B [3]; 10 minutes) of the same compound?
Answer: 2.4 log10

Question: What about the “percentage reduction of E. coli B” value (E. coli B [3]; 10 minutes) of the same compound?
Answer: 99.6%

Question: And the “log10 reduction of E. coli B” value (E. coli B [3]; 30 minutes)?
Answer: 3.7 log10

Question: What about the “percentage reduction of E. coli B” value (E. coli B [3]; 30 minutes) of the same compound?
Answer: 99.98%

Question: And the “log10 reduction of E. coli B” value (E. coli B [3]; 90 minutes)?
Answer: > 5.9 log10

Question: What about the “E. coli B incubated in the dark, infectivity assay” value (E. coli B [3]; 10^−3 M in PBS, dark) of the same compound?
Answer: not detected

Question: What about the “infectivity of E. coli B after treatment” value (E. coli B [3]; 10^−5 M in PBS, with or without light, one minute (FIG. 9)) of the same compound?
Answer: decreased below detection limits

Question: What about the “poliovirus (PV1) in the absence of light” value (poliovirus (PV1)) of the same compound?
Answer: unaffected

Question: What about the “inactivation of Escherichia coli B” value (Escherichia coli B; 30 minutes, medium aerated by sparging with air) of the same compound?
Answer: over 3.7 log

Question: And the “inactivation of Escherichia coli B, medium not aerated” value (Escherichia coli B; medium not aerated)?
Answer: No inactivation

Question: And the “effect of porphyrin alone on Escherichia coli B” value (Escherichia coli B; porphyrin alone, without light)?
Answer: ineffective

Question: How did the CHO colony count [1, 4] turn out when `Cl.Cl.O=S(=O)(O)c1ccc(-c2c3nc(c(-c4ccc(S(=O)(=O)O)cc4)c4ccc([nH]4)c(-c4ccc(S(=O)(=O)O)cc4)c4nc(c(-c5ccc(S(=O)(=O)O)cc5)c5ccc2[nH]5)C=C4)C=C3)cc1` [TPPS4, meso-tetra-(4-sulfonatophenyl)-porphine dihydrochloride] was run?
Answer: 189 cfu/well

Question: What about the CHO colony count [1, 6] of the same compound?
Answer: 320 cfu/well

Question: What about the CHO colony count [1, 7] of the same compound?
Answer: 310 cfu/well

Question: What about the “inactivation of HAV in plasma” value (HAV) of the same compound?
Answer: about 1 log

Question: What about the “inactivation of HAV in water” value (HAV) of the same compound?
Answer: 2 logs

Question: And the “reduction of HAV in plasma” value (HAV)?
Answer: 2 logs

Question: What about the “MS2 in the absence of light” value (coliphage MS2) of the same compound?
Answer: unaffected

Question: What about the “coliphage MS2 after 10 minutes of contact” value (coliphage MS2) of the same compound?
Answer: unaffected

Question: What about the “inactivation of coliphage MS2 in plasma” value (coliphage MS2) of the same compound?
Answer: about 3 logs

Question: What about the “initial infectious test microbes remaining at the end of each experimental period” value (coliphage MS2) of the same compound?
Answer: approximately 100%

Question: What about the “loss of infectivity without UV light” value (coliphage MS2) of the same compound?
Answer: no loss of infectivity

Question: And the “log10 reduction of Escherichia coli B” value (E. coli B [3]; 10^−5 M in PBS, 1 minute)?
Answer: 0.6 log10

Question: What about the “percentage reduction of Escherichia coli B” value (E. coli B [3]; 10^−5 M in PBS, 1 minute) of the same compound?
Answer: 75%

Question: What about the “log10 reduction of Escherichia coli B” value (E. coli B [3]; 10^−5 M in PBS, 10 minutes) of the same compound?
Answer: 1.6 log10

Question: And the “percentage reduction of Escherichia coli B” value (E. coli B [3]; 10^−5 M in PBS, 10 minutes)?
Answer: 97%

Question: And the “log10 reduction of Escherichia coli B” value (E. coli B [3]; 10^−5 M in PBS, 30 minutes)?
Answer: > 5.5 log10

Question: What about the “loss of infectivity of E. coli B in the absence of long-wavelength UV light” value (E. coli B [3]; porphyrin without long-wavelength UV light) of the same compound?
Answer: did not result in any loss of infectivity
